# Experimental data reported in patent publication US9593305B2, “Differentiation of pluripotent stem cells” (Janssen Biotech, Inc., priority 2008, dated 2017).
# Test system: H1 human embryonic stem cells
# Assay: Single-cell monolayer assay with EGF/FGF4, serum free, no activin A (Example 10, Table 10)
# Assay type: cell-based
# Experimental: Briefly, clusters of H1 human embryonic stem cells were grown on reduced growth factor […]™ (Invitrogen; Cat #356231)-coated tissue culture plastic. Cultures were treated with Accutase (Sigma; Cat #A6964), using equivalent volumes of […] surface area for 5 minutes at 37° C., then gently resuspended, pelleted by centrifugation, and resuspended in MEF conditioned medium for counting. For assay seeding, cells were plated at 50,000 cells/cm^2 on reduced growth factor […]™-coated 96-well black plates (Packard ViewPlates; Cat #6005182) using volumes of 100 μl/well. Cells were allowed to attach and recover log phase growth over a 3 to 5 day period, feeding daily with MEF conditioned medium supplemented with 8 ng/ml bFGF (R&D Systems; Cat #233-FB). Plates were maintained at 37° C., 5% CO2 in a humidified box throughout the duration of assay.
# Stocks of EGF and FGF4 were prepared in a 96-well polypropylene plate (Corning, Inc.; Cat #3960). Compound 22 was available as a 5 mM stock solubilized in 100% DMSO (Sigma; Cat #D2650) and stored at −80° C. Assays were initiated by aspirating culture medium from each well followed by three washes in PBS to remove residual growth factors and serum. […]
# On the second day of assay, wells were again aspirated and fed with 80 μl per well were added back containing RPMI 1640 base medium supplemented with 2.5% fatty acid free BSA, 10 ng/ml bFGF, and 3.125 μM Compound 22 plus 20 μl 5× stock of growth factors to yield a final concentration of 2% fatty acid free BSA, 8 ng/ml bFGF and 2.5 μM Compound 22 in assay. Positive control wells contained the same base medium supplemented with 2% fatty acid free BSA, 8 ng/ml bFGF and 100 ng/ml recombinant human activin A. Negative control samples contained the same base medium supplemented with 2% fatty acid free BSA and 8 ng/ml bFGF but omitted treatment with activin A.
# At the conclusion of four-days of culture, assay plates were washed twice with PBS, fixed with 4% paraformaldehyde (Alexis Biochemical; Cat #ALX-350-011) at room temperature for 20 minutes, then washed three times with PBS and permeabilized with 0.5% Triton X-100 (Sigma; Cat #T8760-2) for 20 minutes at room temperature. Cells were washed again three times with PBS and blocked with 4% chicken serum (Invitrogen; Cat #16110082) in PBS for 30 minutes at room temperature. Primary antibody (goat anti-human SOX17; R&D Systems; cat #AF1924) was diluted 1:100 in 4% chicken serum and added to each well for one hour at room temperature. Alexa Fluor 488 conjugated secondary antibody (chicken anti-goat IgG; Molecular Probes; Cat #AZ1467) was diluted 1:200 in PBS and added to each sample well after washing three times with PBS. To counterstain nuclei, 4 μg/ml Hoechst 33342 (Invitrogen; Cat #H3570) was added for ten minutes at room temperature. Plates were washed once with PBS and left in 100 μl/well PBS for imaging.
# Imaging was performed using an IN Cell Analyzer 1000 (GE Healthcare) utilizing the 51008bs dichroic for cells stained with Hoechst 33342 and Alexa Fluor 488. Exposure times were optimized from positive control wells and from untreated negative control wells stained with secondary antibody alone. Images from 15 fields per well were acquired to compensate for any cell loss during the bioassay and subsequent staining procedures. Measurements for total cell number and total SOX17 intensity were obtained from each well using IN Cell Developer Toolbox 1.7 (GE Healthcare) software. Segmentation for the nuclei was determined based on gray-scale levels (baseline range 100-300) and nuclear size. Averages and standard deviations were calculated for each replicate data set. Total SOX17 protein expression was reported as total intensity or integrated intensity, defined as total fluorescence of the cell multiplied by the area of the cell. Background was eliminated based on acceptance criteria of gray-scale ranges between 200 to 3500. […]
# [1] = No AA (with Wnt3a), FGF none, EGF none
# [2] = No AA (with Wnt3a), FGF none, EGF(25 ng/ml)
# [3] = No AA (with Wnt3a), FGF none, EGF(50 ng/ml)
# [4] = No AA (with Wnt3a), FGF none, EGF(100 ng/ml)
# [5] = No AA (with Wnt3a), FGF(25 ng/ml), EGF none
# [6] = No AA (with Wnt3a), FGF(25 ng/ml), EGF(25 ng/ml)
# [7] = No AA (with Wnt3a), FGF(25 ng/ml), EGF(50 ng/ml)
# [8] = No AA (with Wnt3a), FGF(25 ng/ml), EGF(100 ng/ml)
# [9] = No AA (with Wnt3a), FGF(50 ng/ml), EGF none
# [10] = No AA (with Wnt3a), FGF(50 ng/ml), EGF(25 ng/ml)
# [11] = No AA (with Wnt3a), FGF(50 ng/ml), EGF(50 ng/ml)
# [12] = No AA (with Wnt3a), FGF(50 ng/ml), EGF(100 ng/ml)
# [13] = No AA (with Wnt3a), FGF(100 ng/ml), EGF none
# [14] = No AA (with Wnt3a), FGF(100 ng/ml), EGF(25 ng/ml)
# [15] = No AA (with Wnt3a), FGF(100 ng/ml), EGF(50 ng/ml)
# [16] = No AA (with Wnt3a), FGF(100 ng/ml), EGF(100 ng/ml)
# [17] = No AA (without Wnt3a), FGF(50 ng/ml), EGF(50 ng/ml)
# [18] = No AA (without Wnt3a), FGF(50 ng/ml), EGF(100 ng/ml)
# [19] = No AA (without Wnt3a), FGF(100 ng/ml), EGF(50 ng/ml)
# [20] = No AA (without Wnt3a), FGF(100 ng/ml), EGF(100 ng/ml)
# [21] = Activin A (with Wnt3a), positive control
molecule,measurement,setting,value
"O=C1CCN2CCN(CC2)Cc2cc(Cl)cc(c2)Nc2ncnc(n2)-c2cncc(c2)CCCN1 [Compound 34, 5-Chloro-1,8,10,12,16,22,26,32-octaazapentacyclo[24.2.2.1˜3.7˜0.1˜9,13˜0.1˜14.18˜]tritriaconta-3(33), 4,6,9(32), 10,12,14(31), 15,17-nonaen-23-one]","Cell Number, % of positive control",[1],92.38%
same,"Cell Number, Average Total Cell Number",[1],11711
same,"Sox17 Expression, % of positive control",[1],60.68%
same,"Sox17 Expression, Average Total Intensity",[1],1.65E+08
same,"Cell Number, % of positive control",[2],126.63%
same,"Cell Number, Average Total Cell Number",[2],16052
same,"Sox17 Expression, % of positive control",[2],78.82%
same,"Sox17 Expression, Average Total Intensity",[2],2.14E+08
same,"Cell Number, % of positive control",[3],107.23%
same,"Cell Number, Average Total Cell Number",[3],13593
same,"Sox17 Expression, % of positive control",[3],71.52%
same,"Sox17 Expression, Average Total Intensity",[3],1.94E+08
same,"Cell Number, % of positive control",[4],103.90%
same,"Cell Number, Average Total Cell Number",[4],13170
same,"Sox17 Expression, % of positive control",[4],71.04%
same,"Sox17 Expression, Average Total Intensity",[4],1.93E+08
same,"Cell Number, % of positive control",[5],145.41%
same,"Cell Number, Average Total Cell Number",[5],18433
same,"Sox17 Expression, % of positive control",[5],91.72%
same,"Sox17 Expression, Average Total Intensity",[5],2.49E+08
same,"Cell Number, % of positive control",[6],148.63%
same,"Cell Number, Average Total Cell Number",[6],18841
same,"Sox17 Expression, % of positive control",[6],95.72%
same,"Sox17 Expression, Average Total Intensity",[6],2.60E+08
same,"Cell Number, % of positive control",[7],128.05%
same,"Cell Number, Average Total Cell Number",[7],16232
same,"Sox17 Expression, % of positive control",[7],84.79%
same,"Sox17 Expression, Average Total Intensity",[7],2.30E+08
same,"Cell Number, % of positive control",[8],73.44%
same,"Cell Number, Average Total Cell Number",[8],9309
same,"Sox17 Expression, % of positive control",[8],51.00%
same,"Sox17 Expression, Average Total Intensity",[8],1.39E+08
same,"Cell Number, % of positive control",[9],100.64%
same,"Cell Number, Average Total Cell Number",[9],12757
same,"Sox17 Expression, % of positive control",[9],61.10%
same,"Sox17 Expression, Average Total Intensity",[9],1.66E+08
same,"Cell Number, % of positive control",[10],139.79%
same,"Cell Number, Average Total Cell Number",[10],17720
same,"Sox17 Expression, % of positive control",[10],85.01%
same,"Sox17 Expression, Average Total Intensity",[10],2.31E+08
same,"Cell Number, % of positive control",[11],128.83%
same,"Cell Number, Average Total Cell Number",[11],16331
same,"Sox17 Expression, % of positive control",[11],83.11%
same,"Sox17 Expression, Average Total Intensity",[11],2.26E+08
same,"Cell Number, % of positive control",[12],128.87%
same,"Cell Number, Average Total Cell Number",[12],16336
same,"Sox17 Expression, % of positive control",[12],85.24%
same,"Sox17 Expression, Average Total Intensity",[12],2.32E+08
same,"Cell Number, % of positive control",[13],156.61%
same,"Cell Number, Average Total Cell Number",[13],19853
same,"Sox17 Expression, % of positive control",[13],95.45%
same,"Sox17 Expression, Average Total Intensity",[13],2.59E+08
same,"Cell Number, % of positive control",[14],156.83%
same,"Cell Number, Average Total Cell Number",[14],19880
same,"Sox17 Expression, % of positive control",[14],95.47%
same,"Sox17 Expression, Average Total Intensity",[14],2.59E+08
same,"Cell Number, % of positive control",[15],143.30%
same,"Cell Number, Average Total Cell Number",[15],18166
same,"Sox17 Expression, % of positive control",[15],86.30%
same,"Sox17 Expression, Average Total Intensity",[15],2.35E+08
same,"Cell Number, % of positive control",[16],88.68%
same,"Cell Number, Average Total Cell Number",[16],11241
same,"Sox17 Expression, % of positive control",[16],57.10%
same,"Sox17 Expression, Average Total Intensity",[16],1.55E+08
same,"Cell Number, % of positive control",[17],105.06%
same,"Cell Number, Average Total Cell Number",[17],13317
same,"Sox17 Expression, % of positive control",[17],74.08%
same,"Sox17 Expression, Average Total Intensity",[17],2.01E+08
same,"Cell Number, % of positive control",[18],111.93%
same,"Cell Number, Average Total Cell Number",[18],14189
same,"Sox17 Expression, % of positive control",[18],73.90%
same,"Sox17 Expression, Average Total Intensity",[18],2.01E+08
same,"Cell Number, % of positive control",[19],99.52%
same,"Cell Number, Average Total Cell Number",[19],12616
same,"Sox17 Expression, % of positive control",[19],66.21%
same,"Sox17 Expression, Average Total Intensity",[19],1.80E+08
same,"Cell Number, % of positive control",[20],65.23%
same,"Cell Number, Average Total Cell Number",[20],8269
same,"Sox17 Expression, % of positive control",[20],41.73%
same,SOX17 expression,"compound added to EGF and/or FGF4, single cells, no activin A",significant enhancement of SOX17 expression
"Activin A: recombinant human activin A (PeproTech), TGF-beta family member","Cell Number, % of positive control",[21],100.00%
same,"Cell Number, Average Total Cell Number",[21],12676
same,"Sox17 Expression, % of positive control",[21],100.00%
same,"Sox17 Expression, Average Total Intensity",[21],2.72E+08
